Laboratory results from patent US20220257595A1, “MACITENTAN FOR USE IN TREATING PORTOPULMONARY HYPERTENSION” (ACTELION PHARMACEUTICALS LTD, priority 2019, published 2022).
“Also recorded” adds a separate entry of the source.

Columns and labels:
patients with PoPH [1] = experiment: PORTICO: hepatic venous pressure gradient by hepatic vein catheterization; type: in vivo, human; conditions: macitentan group n=15, no TIPS
Protocol: (ii) Hemodynamic measurements—hepatic vein catheterization: HVPG, the difference between portal pressure and hepatic pressure, was measured by HVC at Baseline (Visit 1/Screening) and Week 12, or at permanent discontinuation of DB study treatment if prior to Week 12 (at the investigator's discretion). Where possible, HVPG was measured at the same time as RHC. The second measurement during the study was required to be performed within 1 week prior to EOT-DB if it was not possible to perform the HVC on the same day as the RHC. HVPG measurements were performed after at least 4 hours of fasting, at rest, in the supine position, under local anesthesia and mild sedation. A catheter introducer was placed into the right jugular vein (or femoral) using the Seldinger technique. It was used to advance a balloon-tipped catheter into the main right hepatic vein for repeated measurements of wedged (occluded) and free hepatic venous pressures. Intravascular pressures were measured using highly sensitive pressure transducers, calibrated before each measurement. HVPG was calculated as the difference between wedged and free hepatic venous pressures. […] The mean of these two measurements was considered final. […]

patients with PoPH [2] = experiment: PORTICO: right heart catheterization hemodynamics at rest (PVR, mRAP, mPAP, cardiac index, TPR, SVO2, PAWP/LVEDP); type: in vivo, human
Protocol: This study was designed as a randomized, double-blind (DB), placebo-controlled, prospective, multicenter, parallel group Phase 4 study assessing the efficacy and safety of macitentan in PoPH. The study design included an OL period following DB End of Treatment (EOT), the details of which are included below. The study design required approximately 84 adult patients with PoPH to be randomized (1:1) to receive either macitentan 10 mg, or matching placebo, once daily (o.d.) orally. Subject allocation to treatment groups was stratified by background PAH specific therapy receipt (yes/no). Stratification by region of enrollment was also performed as the number of enrolled patients per center was expected to be low, and variation in total patient numbers on a country-to-country level was expected. Based on an attrition rate of 10%, it was expected to have 76 evaluable patients at Week 12/End of Treatment (double-blind) (EOT-DB). Subjects were required to have a confirmed diagnosis of PoPH with a PVR of ≥4 Wood units (WU; ≥320 dyn·s·cm^−5) at enrollment but not have severe hepatic impairment (defined as Child-Pugh Class C or Model for End-Stage Liver Disease (MELD) score ≥19). Subjects were required to have 6-minute walk distance (6MWD) ≥50 m at enrollment but they could belong to any WHO FC. Patients were randomized at 36 sites in seven countries. The core study comprised the following periods:
The primary efficacy endpoint was: • Relative change from baseline to Week 12 in PVR, expressed as ratio of Week 12 to baseline PVR (Week 12 PVR divided by baseline PVR).
(i) Hemodynamic measurements—right heart catheterization: Invasive cardiac hemodynamic variables were measured according to the RHC guidelines at Baseline (Visit 1/Screening) and Week 12, or at permanent discontinuation of DB study treatment if prior to Week 12 (at the investigator's discretion). The thermodilution technique was used to measure cardiac output (CO). For each patient, a maximum of two RHC procedures were performed during the study. The following variables were measured: Heart rate (HR), PAWP or LVEDP (if PAWP is not available), mRAP, systolic/diastolic/mean pulmonary arterial pressure (PAP), CO, SVO2. PVR was calculated at Visit 1/Screening. The following hemodynamic variables were calculated for analysis purposes: PVR, TPR, cardiac index.
The primary efficacy endpoint is: • Relative change from baseline to Week 12 in PVR, expressed as ratio of Week 12 to baseline PVR (Week 12 PVR divided by baseline PVR). • Calculated PVR was used for the efficacy analyses.
The primary analysis was performed on the FAS and using calculated PVR. PVR was summarized by time point and treatment group using descriptive statistics. Ratio of Week 12 to baseline was summarized using geometric means and coefficients of variation (CVs). The ratio of Week 12 to baseline PVR was log-transformed (base e) and analyzed using ANCOVA with factors for treatment group (macitentan versus placebo), background PAH-specific therapy at baseline (Yes/No as per IXRS, randomization stratification factor), region (Europe/North America/Latin America as per IXRS, randomization stratification factor) and a covariate for baseline log-transformed PVR. The treatment group difference (on log scale) and its 95% confidence interval (2-sided) were estimated based on the model. The geometric mean ratio (macitentan versus placebo) and its 95% confidence interval (2-sided) were obtained by exponentiation. […] The log transformation for PVR is justified by the fact that ratios versus baseline follow a normal distribution more closely after a log transformation. In addition, mean absolute changes from baseline on log scale can be translated into (geometric) mean ratios by exponentiation.
A sensitivity analysis was performed applying main ANCOVA analysis without the stratification factors (background PAH-specific therapy at baseline and region). […]

[3] = 10 mg o.d. oral, DB period, FAS with imputation, n=43
[4] = 10 mg o.d., FAS with imputation, n=43
[5] = Week 12 vs baseline, macitentan group
[6] = change to Week 12, ANCOVA, FAS, listed as Macitentan
[7] = patients receiving macitentan, FAS no imputation

Compound: CCCNS(=O)(=O)Nc1ncnc(OCCOc2ncc(Br)cn2)c1-c1ccc(Br)cc1 [macitentan, N-[5-(4-Bromophenyl)-6-[2-[(5-bromo-2-pyrimidinyl)oxy]ethoxy]-4-pyrimidinyl]-N′-propylsulfamide]
- HVPG (central review) mean change from baseline at Week 12 (patients with PoPH [1]): −0.5 mmHg
- PVR at Week 12, mean (patients with PoPH [2]; [3]): 350.3 dyn.sec/cm^5
- PVR at Week 12, median (patients with PoPH [2]; [3]): 328.6 dyn.sec/cm^5
- Mean (±SD) decrease in PVR from baseline to Week 12 (patients with PoPH [2]; 10 mg o.d., FAS): 202.1 (±123.56) dyn·sec/cm^5
- Change from baseline to Week 12 in PVR, mean (patients with PoPH [2]; [4]): −202.1 dyn.sec/cm^5
- Change from baseline to Week 12 in PVR, median (patients with PoPH [2]; [4]): −179.9 dyn.sec/cm^5
- Ratio of Week 12 to baseline PVR, geometric mean (95% CLs) (patients with PoPH [2]; [4]): 0.63 (0.58, 0.67)
- Ratio of baseline PVR at Week 12, median (patients with PoPH [2]; [4]): 0.60
- Ratio of Week 12 to baseline PVR, geometric mean (95% CLs) (patients with PoPH [2]; 10 mg o.d., FAS with imputation, n=43, listed as Macitentan): 0.63
- LS mean difference Macitentan 10 mg-Placebo, log(ratio of baseline PVR at Week 12) (patients with PoPH [2]; ANCOVA, FAS): −0.43
- LS mean of log(ratio of baseline PVR at Week 12) (patients with PoPH [2]; ANCOVA, FAS, macitentan group): −0.41
- Model-adjusted geometric mean of ratio of baseline PVR at Week 12 (patients with PoPH [2]; ANCOVA, FAS, macitentan group): 0.67
- SVO2 at Week 12, mean (patients with PoPH [2]; FAS with imputation, n=41): 70.3%
- SVO2 change from baseline to Week 12, mean (patients with PoPH [2]; FAS with imputation, n=41): 1.1%
- mRAP at Week 12, mean (patients with PoPH [2]; FAS with imputation, n=42): 9.0 mmHg
- mRAP change from baseline to Week 12, mean (patients with PoPH [2]; FAS with imputation, n=42): 1.6 mmHg
- Cardiac index at Week 12, mean (patients with PoPH [2]; FAS with imputation, n=43): 3.7 L/min/m^2
- Cardiac index change from baseline to Week 12, mean (patients with PoPH [2]; FAS with imputation, n=43): 0.6 L/min/m^2
- TPR at Week 12, mean (patients with PoPH [2]; FAS with imputation, n=43): 489.4 dyn · sec/cm^5
- TPR change from baseline to Week 12, mean (patients with PoPH [2]; FAS with imputation, n=43): −199.8 dyn · sec/cm^5
- mPAP Change from baseline to Week 12, Mean (patients with PoPH [2]; FAS with imputation, n=43): −6.4 mmHg
- mPAP at Week 12, mean (patients with PoPH [2]; FAS with imputation, n=43): 40.0 mmHg
- Effect on PVR across demographic and baseline disease subgroups (patients with PoPH [2]; FAS, subgroup analyses, Week 12): consistent with the overall treatment effect, with no indication of heterogeneity
- Geometric mean ratio of macitentan versus placebo (95% CLs), PVR, slope imputation (patients with PoPH [2]; Week 12, ANCOVA, FAS N=85): 0.65 (0.59, 0.72),
- Model-adjusted geometric mean ratio of PVR (macitentan over placebo), primary analysis (patients with PoPH [2]; Week 12, ANCOVA, FAS N=85): 0.65 (0.59, 0.72), p < 0.0001
- Difference in LS means macitentan-placebo, change from baseline in PVR (no log-transformation) (patients with PoPH [2]; Week 12, ANCOVA, FAS N=85 (Table 10)): −180.71 dyn.sec/cm^5
- Model-adjusted geometric mean ratio of PVR (macitentan over placebo), primary analysis (patients with PoPH [2]; Week 12, ANCOVA, FAS N=85, listed as Macitentan): 0.65
- Treatment effect: geometric mean ratio of PVR ratio (macitentan vs placebo) (patients with PoPH [2]; Week 12, FAS with imputation, descriptive (Table 8)): 0.64
- LS Mean difference (macitentan-placebo), ANCOVA (Absolute Change) of PVR (patients with PoPH [2]; Week 12, N=85 (Table 12)): −180.71 meters
- Reduction in PVR vs placebo (patients with PoPH [2]; Week 12, from adjusted geometric mean ratio): 35%
- Patients with an increase in PVR (patients with PoPH [2]; [5]): 1 patient
- Patients with no change in PVR (patients with PoPH [2]; [5]): 1 patient
- SVO2: difference in LS means macitentan-placebo (patients with PoPH [2]; change to Week 12, ANCOVA, FAS): No clinically significant effect; also recorded: No clinically relevant effect
- mRAP: difference in LS means macitentan-placebo (patients with PoPH [2]; change to Week 12, ANCOVA, FAS): No clinically significant effect; also recorded: No clinically relevant effect
- Cardiac index: difference in LS means macitentan-placebo (patients with PoPH [2]; [6]): 0.52 L/min/m^2
- SVO2: difference in LS means macitentan-placebo (patients with PoPH [2]; [6]): 0.03%
- TPR: difference in LS means macitentan-placebo (patients with PoPH [2]; [6]): −171.48 dyn · sec/cm^5
- mPAP: difference in LS means macitentan-placebo (patients with PoPH [2]; [6]): −5.99 mmHg
- mRAP: difference in LS means macitentan-placebo (patients with PoPH [2]; [6]): 1.67 mmHg
- PAWP/LVEDP treatment difference based on change from baseline to Week 12 (patients with PoPH [2]; macitentan vs placebo): 2.4 mmHg
- Mean PAWP/LVEDP (SD) at Week 12 (patients with PoPH [2]; [7]): 11.4 (4.2) mmHg
- PAWP/LVEDP mean (SD) change from baseline at Week 12 (patients with PoPH [2]; [7]): 2.1 (3.7) mmHg
